Earlier results, collected in patent publication EP4257117A1, “SUSTAINED-RELEASE PHARMACEUTICAL COMPOSITION OF FULVESTRANT AND METHOD FOR PREPARING SAME” (Samyang Holdings Corporation, priority 2020, dated 2022).
Like-named read-outs stand apart in the source and are kept apart here.

Tests used:
[1] = according to the prescription of Faslodex Injection
[2] = in pure water, according to FDA data

saturation solubility of Fulvestrant ([1]; at room temperature): about 90 mg/mL
saturation solubility of Fulvestrant ([1]; in refrigerated storage): about 65 mg/mL
solubility in aqueous solution [2]: practically insoluble
SMILES: C[C@]12CC[C@@H]3c4ccc(O)cc4C[C@@H](CCCCCCCCC[S+]([O-])CCCC(F)(F)C(F)(F)F)[C@H]3[C@@H]1CC[C@@H]2O (stereo partly drawn) [Fulvestrant, 7-alpha-[9-(4,4,5,5,5-pentafluoropentylsulphinyl)nonyl]estra-1,3,5-(10)-triene-3,17beta-diol]
